In data set [1] the test system is Hep 3B2. Kind of data set: Inhibition of hypoxia-induced VEGF protein secretion in human Hep3B cells after 16 hrs by ELISA. It counts as functional, cell-based. For orientation: ELISA stands for enzyme-linked immunosorbent assay.
The target in data set [2] is Hypoxia inducible factors; HIF-1-alpha, HIF-2-alpha (Homo sapiens, UniProt Q16665+Q99814). Briefly: Inhibition of hypoxia-induced HIF1 activation in human Hep3B cells by pGL3-HRE-luciferase reporter gene assay. It counts as cell-based. To be noted: hep 3b2. On the technique in general: Reporter assays use an easily measured gene product as a stand-in for the process of interest.

Data set [3] can be described thus: Cytotoxicity against human Hep3B cells after 24 hrs by MTT assay. To be noted: hep 3b2, 24 h. The data set is classed as cell-based. Background: Tetrazolium dyes change colour on reduction, which living cells bring about.
The test system of data set [4] is Hep 3B2. Kind of data set: Inhibition of luciferase expression in human Hep3B cells after 16 hrs under hypoxic condition. It counts as functional, cell-based.
Data set [5] relates to Hep 3B2. Briefly: Effect on luciferase activity in human Hep3B cells exposed to hypoxic condition for 16 hrs. It counts as functional, cell-based.

pEC50, pIC50: −log10 of the molar value. A value given as a limit tells only on which side of the number the result lay.

A word on the pIC50: it is the IC50 on a negative log10 scale, so that one unit is a factor of ten. As usually defined, the IC50 is the point on the concentration scale where inhibition reaches its midpoint. By pEC50 is commonly meant −log10 of the EC50, conventionally taken in molar units.

As to `CC(C)=CCc1c(O)ccc(C(=O)[C@H]2[C@@H](c3c(O)ccc(C(=O)/C=C/c4ccc(O)cc4O)c3O)C=C(C)C[C@@H]2c2ccc(O)cc2O)c1O`, the negative logarithm of the IC50 (pIC50) in data set [1] is 5.50. The same molecule yielded a concentration for half-maximal inhibition (IC50) in data set [2] of 8.55 µM. The Activity result in data set [3] is recorded as “Dose-dependent effect”.

Turning to `CC(C)=CCc1c(O)ccc(C(=O)[C@H]2[C@@H](c3c(O)ccc(C(=O)/C=C/c4ccc(O)cc4)c3O)C=C(C)C[C@@H]2c2ccc(O)cc2)c1O`, the pIC50 in data set [1] was 5.11. Besides, in data set [2], the 50% inhibitory concentration (IC50) turned out to be 9.54 µM.

In data set [1], `CC(C)=CCC/C(C)=C/Cc1c(O)cc(O)cc1-c1cc2ccc(O)cc2o1` [ALBAFURAN A] showed a pIC50 of 5.58. Further, the half-maximal inhibitory concentration (IC50) in data set [2] amounted to 6.27 µM. Moreover, in data set [3], the Activity entry is recorded as “Dose-dependent effect”.

`CO[C@H]1/C=C\C=C(/C)C(=O)NC2=CC(=O)C(NCCN(C)C)=C(C[C@@H](C)C[C@H](OC)[C@H](O)[C@@H](C)/C=C(\C)[C@@H]1OC(N)=O)C2=O` [ALVESPIMYCIN] gave a negative logarithm of the IC50 (pIC50) in data set [1] of 7.10. The molecule also showed an IC50 in data set [2] of more than 30 µM.

In the case of `Oc1cc(O)cc(-c2cc3ccc(O)cc3o2)c1` [MORACIN M], the negative logarithm of the IC50 (pIC50) in data set [1] was less than 4.30. Besides, the IC50 in data set [2] was more than 30 µM.

Turning to `CC(C)(O)C1Cc2cc3cc(-c4cc(O)cc(O)c4)oc3cc2O1` (stereo not drawn) [MORACIN O], the negative-log IC50 (pIC50) in data set [4] was 8.75; in data set [1], 5.14. The molecule also showed a negative logarithm of the EC50 (pEC50) in data set [5] of 9.00. In addition, the IC50 in data set [2] is more than 30 µM. For the same molecule, the Activity result in data set [3] was “Dose-dependent effect”.

In turn, `CC1(C)Oc2cc3oc(-c4cc(O)cc(O)c4)cc3cc2C[C@H]1O` [MORACIN P] had a negative-log IC50 (pIC50) in data set [1] of 4.97. The molecule further showed an IC50 in data set [2] of more than 30 µM. Besides, the Activity entry in data set [3] is listed as “Dose-dependent effect”.

On to `COc1c(O)cc2oc(-c3cc(O)cc(O)c3)cc2c1CC(=O)C(C)C` [MORACIN Q], for which, in data set [1], the pIC50 was 5.03. Further, the IC50 in data set [2] was more than 30 µM. Further, in data set [3], the Activity result is “Dose-dependent effect”.

Turning to `CC(C)=CCC/C(C)=C/Cc1c(O)ccc2cc(-c3cc(O)cc(O)c3CC=C(C)C)oc12` [MULBERROFURAN D], the pIC50 in data set [1] was 5.66. For the same molecule, in data set [2], the 50% inhibitory concentration (IC50) amounted to 8.76 µM. Also, in data set [3], the Activity entry is recorded as “Dose-dependent effect”.

In data set [1], `CC1=C[C@H]2c3c(O)cc(-c4cc5ccc(O)cc5o4)cc3O[C@@]3(c4ccc(O)cc4O)Oc4cc(O)ccc4[C@H](C1)[C@@H]23` [MULBERROFURAN G] had a pIC50 of 4.54. This molecule also returned an IC50 in data set [2] of more than 30 µM.

In turn, `C[C@@]12C=C(c3c(O)cc(-c4cc5ccc(O)cc5o4)cc3O)C[C@@H](C1)c1ccc(O)cc1O2` [MULBERROFURAN H] showed a pIC50 in data set [1] of 4.81. Further, the half-maximal inhibitory concentration (IC50) in data set [2] was more than 30 µM. In data set [3], the Activity entry is on record as “Dose-dependent effect”.

As for `CC(C)=CCC/C(C)=C\CC/C(C)=C\Cc1c(O)cc(O)cc1-c1cc2ccc(O)cc2o1` [MULBERROFURAN W], in data set [1], the pIC50 was 5.52. Besides, in data set [2], the half-maximal inhibitory concentration (IC50) was 6.07 µM.

`CC(C)=CC[C@]12Oc3cc(O)c([C@H]4C=C(C)C[C@H](c5ccc(O)cc5O)[C@H]4C(=O)c4ccc(O)cc4O)c(O)c3C(=O)[C@@]1(O)Oc1cc(O)ccc12` [SANGGENON C] showed a negative logarithm of the IC50 (pIC50) in data set [1] of 5.49. For the same molecule, the IC50 in data set [2] was 8.26 µM.

Molecule `CC(C)=CC[C@@]12Oc3cc(O)c([C@H]4C=C(C)C[C@H](c5ccc(O)cc5O)[C@H]4C(=O)c4ccc(O)cc4O)c(O)c3C(=O)[C@]1(O)Oc1cc(O)ccc12` [SANGGENON O] showed a negative-log IC50 (pIC50) in data set [1] of 5.68. The molecule also gave an IC50 in data set [2] of 8.75 µM. Further, the Activity entry in data set [3] is “Dose-dependent effect”.

These data come from ChEMBL document CHEMBL1151479, “Hypoxia-inducible factor-1 inhibitory benzofurans and chalcone-derived diels-alder adducts from Morus species” (J Nat Prod, 2009).
